Results reported in US20250034216A1, “STEREOSELECTIVE COVALENT LIGANDS FOR ONCOGENIC AND IMMUNOLOGICAL PROTEINS” (The Scripps Research Institute, priority 2021, published 2025).

Tests used:
[1] = biological target: T1, MAGI1_C526 (Homo sapiens, UniProt Q96QZ7); experiment: IA-DTB cysteine engagement; type: binding; conditions: 22Rv1 cells, 20 μM probe, 1 h, relative to DMSO
T1 construct: endogenous in cells; host or cells: 22Rv1
How it was run: (§1)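 Probe-exposed cells were lysed, IA-DTB-labeled, trypsinized and streptavidin-enriched. Multiplexed TMT quantitation gave engagement ratios versus DMSO, with non-tryptic peptides excluded and intensities normalized to median summed signal.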

[2] = biological target: T2, NSD2_C1018 (Homo sapiens, UniProt O96028); experiment: IA-DTB cysteine engagement; type: binding; conditions: 22Rv1 cells, 20 μM probe, 1 h, relative to DMSO
T2 construct: endogenous in cells; host or cells: 22Rv1
T2 sequence (O96028 1-1365): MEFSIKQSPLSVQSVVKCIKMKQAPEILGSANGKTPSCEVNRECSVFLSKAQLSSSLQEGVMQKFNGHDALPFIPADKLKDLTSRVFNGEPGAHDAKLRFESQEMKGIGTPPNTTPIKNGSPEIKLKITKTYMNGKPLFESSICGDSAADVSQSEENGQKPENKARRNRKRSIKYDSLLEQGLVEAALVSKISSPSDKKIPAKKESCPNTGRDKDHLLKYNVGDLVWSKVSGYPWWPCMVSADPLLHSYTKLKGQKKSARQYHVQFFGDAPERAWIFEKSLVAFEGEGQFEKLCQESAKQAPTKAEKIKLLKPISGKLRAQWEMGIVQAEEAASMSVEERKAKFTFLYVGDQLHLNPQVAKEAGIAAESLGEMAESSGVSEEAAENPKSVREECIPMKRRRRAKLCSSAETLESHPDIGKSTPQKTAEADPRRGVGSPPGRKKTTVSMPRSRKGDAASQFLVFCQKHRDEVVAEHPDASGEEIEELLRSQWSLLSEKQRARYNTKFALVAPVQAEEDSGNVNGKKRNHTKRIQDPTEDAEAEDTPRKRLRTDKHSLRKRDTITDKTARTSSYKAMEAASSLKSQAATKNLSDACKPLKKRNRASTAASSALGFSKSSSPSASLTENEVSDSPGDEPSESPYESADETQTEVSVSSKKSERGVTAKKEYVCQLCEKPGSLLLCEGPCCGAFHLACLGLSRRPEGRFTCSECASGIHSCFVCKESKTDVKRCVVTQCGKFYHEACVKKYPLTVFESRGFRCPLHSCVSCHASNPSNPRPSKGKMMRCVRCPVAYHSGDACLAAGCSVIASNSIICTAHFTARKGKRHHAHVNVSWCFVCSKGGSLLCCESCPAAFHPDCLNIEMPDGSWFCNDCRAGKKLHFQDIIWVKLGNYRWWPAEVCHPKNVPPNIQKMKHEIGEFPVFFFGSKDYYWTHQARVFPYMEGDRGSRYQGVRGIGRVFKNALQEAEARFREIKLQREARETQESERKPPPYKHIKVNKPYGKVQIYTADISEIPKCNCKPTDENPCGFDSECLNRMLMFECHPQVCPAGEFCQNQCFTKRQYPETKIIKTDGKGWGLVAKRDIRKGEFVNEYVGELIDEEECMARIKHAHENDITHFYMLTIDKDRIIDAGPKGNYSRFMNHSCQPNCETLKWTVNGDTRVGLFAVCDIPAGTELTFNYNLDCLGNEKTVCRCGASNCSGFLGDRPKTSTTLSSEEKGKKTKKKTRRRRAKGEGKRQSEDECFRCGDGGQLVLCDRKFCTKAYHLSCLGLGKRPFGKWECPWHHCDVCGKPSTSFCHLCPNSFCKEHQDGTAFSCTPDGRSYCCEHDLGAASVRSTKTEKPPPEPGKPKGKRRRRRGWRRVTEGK
How it was run: as §1

T1 sequence (Q96QZ7 whole entry): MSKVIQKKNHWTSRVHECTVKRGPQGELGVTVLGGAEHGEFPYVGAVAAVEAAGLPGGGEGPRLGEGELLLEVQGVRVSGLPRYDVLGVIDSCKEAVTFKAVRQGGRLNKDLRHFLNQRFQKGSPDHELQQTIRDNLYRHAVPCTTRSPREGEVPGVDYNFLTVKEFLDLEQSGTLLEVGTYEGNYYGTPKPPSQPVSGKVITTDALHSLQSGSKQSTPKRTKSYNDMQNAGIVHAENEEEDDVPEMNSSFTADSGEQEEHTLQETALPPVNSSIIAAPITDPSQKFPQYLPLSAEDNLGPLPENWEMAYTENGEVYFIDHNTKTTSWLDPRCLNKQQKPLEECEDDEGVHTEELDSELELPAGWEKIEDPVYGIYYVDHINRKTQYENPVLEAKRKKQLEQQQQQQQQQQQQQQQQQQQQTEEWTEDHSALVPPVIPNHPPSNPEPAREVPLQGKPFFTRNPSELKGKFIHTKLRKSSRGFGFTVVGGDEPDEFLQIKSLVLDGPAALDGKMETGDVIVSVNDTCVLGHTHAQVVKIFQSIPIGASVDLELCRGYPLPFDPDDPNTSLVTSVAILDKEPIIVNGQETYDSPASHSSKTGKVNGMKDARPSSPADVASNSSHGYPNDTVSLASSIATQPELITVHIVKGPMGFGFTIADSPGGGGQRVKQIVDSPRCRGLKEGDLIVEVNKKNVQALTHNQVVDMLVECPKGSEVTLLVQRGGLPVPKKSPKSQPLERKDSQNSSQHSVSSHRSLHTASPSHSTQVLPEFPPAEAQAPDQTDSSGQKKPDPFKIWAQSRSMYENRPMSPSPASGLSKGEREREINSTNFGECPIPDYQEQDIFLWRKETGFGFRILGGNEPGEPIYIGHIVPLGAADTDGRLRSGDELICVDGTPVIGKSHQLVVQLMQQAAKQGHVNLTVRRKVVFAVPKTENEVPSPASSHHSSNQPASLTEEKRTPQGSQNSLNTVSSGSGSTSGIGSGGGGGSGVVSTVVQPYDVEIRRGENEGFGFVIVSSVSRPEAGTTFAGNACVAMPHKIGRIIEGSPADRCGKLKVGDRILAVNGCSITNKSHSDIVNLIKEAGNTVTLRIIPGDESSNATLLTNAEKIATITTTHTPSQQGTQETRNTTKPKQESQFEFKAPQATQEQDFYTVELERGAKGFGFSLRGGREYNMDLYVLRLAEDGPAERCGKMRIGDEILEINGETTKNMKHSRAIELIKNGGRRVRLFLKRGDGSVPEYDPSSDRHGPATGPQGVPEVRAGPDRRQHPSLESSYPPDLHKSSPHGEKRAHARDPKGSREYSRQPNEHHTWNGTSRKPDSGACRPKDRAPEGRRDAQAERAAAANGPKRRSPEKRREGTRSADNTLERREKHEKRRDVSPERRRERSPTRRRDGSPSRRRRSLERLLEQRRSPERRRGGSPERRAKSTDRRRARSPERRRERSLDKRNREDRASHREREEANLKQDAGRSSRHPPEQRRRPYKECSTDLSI

% engagement MAGI1_C526 [1]	% engagement NSD2_C1018 [2]	SMILES
100%	67%	C=CC(=O)N1C[C@H](c2ccc(Br)cc2)[C@H]1C(=O)Nc1cccc2cccnc12 [MY-3B, (2S,3S)-1-acryloyl-3-(4-bromophenyl)-N-(quinolin-8-yl)azetidine-2-carboxamide]
32%	43.75%	C=CC(=O)N1C[C@H](c2ccc(Br)cc2)[C@@H]1C(=O)Nc1cccc2cccnc12 [MY-1B, (2R,3S)-1-acryloyl-3-(4-bromophenyl)-N-(quinolin-8-yl)azetidine-2-carboxamide]
2.5%	36.75%	C=CC(=O)N1C[C@H](c2ccc(Br)cc2)[C@H]1C(=O)Nc1cccc2cccnc12 [MY-3A, (2S,3S)-1-acryloyl-3-(4-bromophenyl)-N-(quinolin-8-yl)azetidine-2-carboxamide]
65%	16.5%	C=CC(=O)N1C[C@@H](c2ccc(Br)cc2)[C@H]1C(=O)Nc1cccc2cccnc12 [MY-1A, (2S,3R)-1-acryloyl-3-(4-bromophenyl)-N-(quinolin-8-yl)azetidine-2-carboxamide]
